By IC50 is commonly meant the point on the concentration scale where inhibition reaches its midpoint. The low end stands for inhibition by little substance, the high end for a need for much substance.

IC50 data for 21 compounds are collected here from US20250179017A1 (GUANGDONG NEWOPP BIOPHARMACEUTICALS CO., LTD., priority 2022, published 2025).

The structures appear in SMILES notation.

For one test, the target named is T1, human EP2 (PTGER2) (Homo sapiens, UniProt P43116).
T1 construct: Cayman Chemical (Human EP2 Reporter Assay Kit)
T1 sequence (P43116 whole entry): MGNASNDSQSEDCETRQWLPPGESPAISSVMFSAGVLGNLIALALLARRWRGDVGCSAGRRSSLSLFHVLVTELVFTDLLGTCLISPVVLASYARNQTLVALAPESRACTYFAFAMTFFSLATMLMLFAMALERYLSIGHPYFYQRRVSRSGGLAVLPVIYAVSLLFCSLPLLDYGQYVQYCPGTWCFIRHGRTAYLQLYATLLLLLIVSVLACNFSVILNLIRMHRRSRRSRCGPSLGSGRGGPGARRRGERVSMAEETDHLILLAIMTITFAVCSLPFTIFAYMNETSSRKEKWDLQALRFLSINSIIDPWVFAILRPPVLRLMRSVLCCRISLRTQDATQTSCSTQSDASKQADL
Briefly: EP2 antagonist assay (HEK-293 CNG membrane potential cAMP assay / 293T SEAP reporter assay, PGE2-stimulated). Format: cell-based. The following applies: EP2 antagonist activity; concentration for 50% inhibition of signal compared to DMSO. The gist of the method: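 Two formats. In a CRE-SEAP reporter assay, reverse-transfected 293T cells received compound with PGE2 (13 nM final) for 6-8 h, then luminescence was read. In the ACTOne CNG format, HEK-293 cells were preincubated with compound for 15 min at RT, stimulated with 5 nM PGE2 for 30 min, and read by membrane-potential dye fluorescence. IC50 was taken versus DMSO.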
On the technique in general: cAMP levels reflect the balance of adenylyl cyclase and phosphodiesterase activity.

The target of another test is T2, human EP4 (EP4R) (Homo sapiens, UniProt P35408).
T2 construct: Cayman Chemical (Human EP4 Reporter Assay Kit)
T2 sequence (P35408 whole entry): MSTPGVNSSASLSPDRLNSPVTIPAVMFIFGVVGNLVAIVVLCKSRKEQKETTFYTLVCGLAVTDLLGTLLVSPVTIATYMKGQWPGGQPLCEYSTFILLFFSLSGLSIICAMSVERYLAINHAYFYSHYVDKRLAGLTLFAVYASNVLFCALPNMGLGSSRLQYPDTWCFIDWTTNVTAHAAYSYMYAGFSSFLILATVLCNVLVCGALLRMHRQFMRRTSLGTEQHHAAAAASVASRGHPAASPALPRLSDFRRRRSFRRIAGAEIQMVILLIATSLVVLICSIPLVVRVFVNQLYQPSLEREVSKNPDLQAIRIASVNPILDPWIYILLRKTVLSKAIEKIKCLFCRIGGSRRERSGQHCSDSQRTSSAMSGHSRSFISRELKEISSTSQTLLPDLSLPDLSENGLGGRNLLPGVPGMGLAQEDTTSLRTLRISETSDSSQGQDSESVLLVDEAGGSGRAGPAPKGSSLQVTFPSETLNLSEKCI
Put plainly: EP4 antagonist assay (HEK-293 CNG membrane potential cAMP assay / 293T SEAP reporter assay, PGE2-stimulated). The class given is cell-based. The conditions noted are these: EP4 antagonist activity; concentration for inhibition of signal compared to DMSO. From the text: 1. The HEK-293 CNG (Cyclic Nucleotide Gated) cell line expressing a modified CNG channel that leads to cell membrane depolarization in response to elevated intracellular cAMP levels, which can be measured using a fluorescent membrane potential dye, was engineered to express human EP2 (PTGER2) or EP4 (EP4R). The resulting cell line ACTOne™ PTGER2 or ACTOne™ EP4R as well as the fluorescent membrane potential dye were purchased from eEnzyme (Gaithersburg, MD, US) and used in this assay. Briefly, cells were plated at 1.2×10^4 cells/well in 20 μL DMEM supplemented with 2% Fetal Bovine Serum (FBS, VWR International), 1x Penicillin/Streptomycin (GenClone), 0.2 μg/mL puromycin (InvivoGen) and 50 μg/mL G418 (InvivoGen) on a 384 well plate (Greiner). The next day, cells were dye-loaded with 20 μL/well of 1x Dye-loading solution (eENZYME) following the manufacturer's instruction. After 2 hours of incubation at room temperature (RT) in the dark, a pre-read was made to obtain the background signals using CLARIOstar plate reader (BMG LABTECH, Germany) with the following filter settings: excitation=530/20 nm, emission=590/20 nm. Next, a serial dilution of compound (plus a DMSO control) were added to the plate (5 μL/well) and the reaction was incubated at RT for 15 min before adding 5 μL of PGE2 to every well for a final concentration of 5 nM. All wells were duplicated. The plate was then further incubated at RT for 30 min prior to a final read with the same machine settings. Background-subtracted signals were used to calculate IC50 values.
2. Human EP2 and EP4 Reporter Assay Kits were purchased from Cayman Chemical (Ann Arbor, MI, USA). The assay was performed following the provided User Manual. Briefly, a reverse transfection was performed by seeding 6.0×10^4 of 293T cells (ATCC) to each well of the provided Strip Plate coated with a proprietary transfection complex containing DNA constructs for expressing human EP2 or EP4 and a cAMP response element regulated secreted alkaline phosphatase (SEAP) reporter, in 200 μL DMEM supplemented with 2% FBS and incubated for 20-24 hours at 37° C. with 5% CO2. After the incubation, the culture medium was carefully removed, and the cells were replenished with 150 μL pre-warmed serum-free medium. PGE2 and test compounds were prepared together at 4x the desired final concentration, and 50 μL was added to each assigned well with the final concentration of 13 nM and 2 nM PGE2 for EP2 and EP4 assay, respectively. After 6-8 hours of incubation, 10 μL media from each well was transferred to corresponding well of a new plate, which was then sealed and incubated at 65° C. for 30 min. The plate was then cooled down to RT and 50 μL SEAP substrate was added to each well. Luminescence signal was measured using a CLARIOstar plate reader.
The IC50 value was determined as the concentration for […] inhibition of signal compared to DMSO (A: IC50≤100 nM; B: IC50 between 100 nM and 1,000 nM; C: IC50≥1,000 nM).

On to `O=C(O)c1ccc(CNC(=O)c2cc(-c3ccccc3)cc3cnn(Cc4ccc(-c5ccccc5)cc4)c23)cc1` [Example 190, 4-((1-([1,1′-biphenyl]-4-ylmethyl)-5-phenyl-1H-indazole-7-carboxamido)methyl)benzoic acid], for which the IC50 was below 100 nM against human EP2 (PTGER2) and at most 100 nM against human EP4 (EP4R).

As to `O=C(O)c1ccc(CNC(=O)c2cc(-c3ccc(F)cc3)cc3ccn(Cc4ccc(C(F)(F)F)cc4)c23)cc1` [Example 1, 4-((5-(4-fluorophenyl)-1-(4-(trifluoromethyl)benzyl)-1H-indole-7-carboxamido)methyl)benzoic acid], the IC50 against human EP2 (PTGER2) was below 100 nM; against human EP4 (EP4R) it was at most 100 nM.

With `O=C(O)c1ccc(CNC(=O)c2cc(-c3ccc(F)c(F)c3)cc3ccn(Cc4ccc(-c5ccccc5)cc4)c23)cc1` [Example 188, 4-((1-([1,1′-biphenyl]-4-ylmethyl)-5-(3,4-difluorophenyl)-1H-indole-7-carboxamido)methyl)benzoic acid], the figures for the IC50 at human EP2 (PTGER2) and at human EP4 (EP4R) were below 100 nM and at most 100 nM, respectively.

As for `C[C@H](NC(=O)c1ccc(Nc2ccccc2)c2ccn(Cc3ccc(C(F)(F)F)cc3)c12)c1ccc(C(=O)O)cc1` [Example 74, (S)-4-(1-(4-(phenylamino)-1-(4-(trifluoromethyl)benzyl)-1H-indole-7-carboxamido)ethyl)benzoic acid], the IC50 at human EP2 (PTGER2) is below 100 nM; against human EP4 (EP4R) it was at most 100 nM.

With `O=C(O)c1ccc(CNC(=O)c2cc(-c3ccc(F)cc3)cc3ccn(Cc4cccc(C(F)(F)F)c4)c23)cc1` [Example 124, 4-((5-(4-fluorophenyl)-1-(3-(trifluoromethyl)benzyl)-1H-indole-7-carboxamido)methyl)benzoic acid], the values for the IC50 against human EP2 (PTGER2) and against human EP4 (EP4R) were below 100 nM and at most 100 nM, respectively.

`C[C@H](NC(=O)c1cc(-c2ccccc2)cc2ccn(Cc3cccc(C(F)(F)F)c3)c12)c1ccc(C(=O)O)cc1` [Example 129, (S)-4-(1-(5-phenyl-1-(3-(trifluoromethyl)benzyl)-1H-indole-7-carboxamido)ethyl)benzoic acid]: the IC50 at human EP2 (PTGER2) is below 100 nM; at human EP4 (EP4R), at most 100 nM.

Consider `C[C@H](NC(=O)c1cc(-c2ccccc2)cc2ccn(Cc3ccc(-c4ccccc4)cc3)c12)c1ccc(C(=O)O)cc1` [Example 150, (S)-4-(1-(1-([1,1′-biphenyl]-4-ylmethyl)-5-phenyl-1H-indole-7-carboxamido)ethyl)benzoic acid], for which the IC50 on human EP2 (PTGER2) is below 100 nM; against human EP4 (EP4R) it was at most 100 nM.

As for `C[C@H](NC(=O)c1cc(-c2cc(F)cc(F)c2)cc2cnn(Cc3ccc(C(F)(F)F)cc3)c12)c1ccc(C(=O)O)cc1` [Example 101, (S)-4-(1-(5-(3,5-difluorophenyl)-1-(4-(trifluoromethyl)benzyl)-1H-indazole-7-carboxamido)ethyl)benzoic acid], the IC50 at human EP2 (PTGER2) is below 100 nM; on human EP4 (EP4R), at most 100 nM.

Consider `O=C(O)c1ccc(CNC(=O)c2cc(-c3ccc(F)cc3)cc3cnn(Cc4ccc(-c5ccccc5)cc4)c23)cc1` [Example 191, 4-((1-([1,1′-biphenyl]-4-ylmethyl)-5-(4-fluorophenyl)-1H-indazole-7-carboxamido)methyl)benzoic acid], for which the IC50 against human EP2 (PTGER2) was below 100 nM; on human EP4 (EP4R) it was at most 100 nM.

As to `O=C(O)c1ccc(C2(NC(=O)c3ccc(Nc4ccccc4)c4ccn(Cc5ccc(C(F)(F)F)cc5)c34)CC2)cc1` [Example 44, 4-(1-(4-(phenylamino)-1-(4-(trifluoromethyl)benzyl)-1H-indole-7-carboxamido)cyclopropyl)benzoic acid], the IC50 at human EP2 (PTGER2) was below 100 nM; against human EP4 (EP4R), at most 100 nM.

In the case of `O=C(O)c1ccc(CNC(=O)c2ccc(Nc3ccccc3)c3ccn(Cc4ccc(-c5ccccc5)cc4)c23)cc1` [Example 154, 4-((1-([1,1′-biphenyl]-4-ylmethyl)-4-(phenylamino)-1H-indole-7-carboxamido)methyl) benzoic acid], the figures for the IC50 against human EP2 (PTGER2) and at human EP4 (EP4R) were below 100 nM and at most 100 nM, respectively.

In the case of `O=C(O)c1ccc(CNC(=O)c2cc(-c3ccc(F)cc3)cc3nnn(Cc4ccc(C(F)(F)F)cc4)c23)cc1` [Example 175], the IC50 is below 100 nM at human EP2 (PTGER2) and at most 100 nM on human EP4 (EP4R).

For the compound `C[C@H](NC(=O)c1cc(-c2ccc(F)cc2)cc2ccn(Cc3ccc(C(F)(F)F)cc3)c12)c1ccc(C(=O)O)cc1` [Example 50, (S)-4-(1-(5-(4-fluorophenyl)-1-(4-(trifluoromethyl)benzyl)-1H-indole-7-carboxamido)ethyl) benzoic acid], the IC50 at human EP2 (PTGER2) was below 100 nM; at human EP4 (EP4R), at most 100 nM.

Consider `O=C(O)c1ccc(CNC(=O)c2cc(-c3ccc(F)cc3)cc3cnn(Cc4ccc5ccccc5c4)c23)cc1` [Example 166, 4-((5-(4-fluorophenyl)-1-(naphthalen-2-ylmethyl)-1H-indazole-7-carboxamido)methyl)benzoic acid], for which the IC50 at human EP2 (PTGER2) was below 100 nM; at human EP4 (EP4R), at most 100 nM.

Turning to `CC(C)(O)c1cccc(-c2cc(C(=O)NCc3ccc(C(=O)O)cc3)c3c(ccn3Cc3ccc(C(F)(F)F)cc3)c2)c1` [Example 85, 4-((5-(3-(2-hydroxypropan-2-yl)phenyl)-1-(4-(trifluoromethyl)benzyl)-1H-indole-7-carboxamido)methyl)benzoic acid], the IC50 on human EP2 (PTGER2) was 100 to 1000 nM; on human EP4 (EP4R), at most 100 nM.

Regarding `N#Cc1cccc(-c2cc(C(=O)NCc3ccc(C(=O)O)cc3)c3c(Sc4ccc(C(F)(F)F)cc4)c[nH]c3c2)c1` [Example 117, 4-((6-(3-cyanophenyl)-3-((4-(trifluoromethyl)phenyl)thio)-1H-indole-4-carboxamido)methyl)benzoic acid], the IC50 against human EP2 (PTGER2) is below 100 nM; on human EP4 (EP4R), at most 100 nM.

For `O=C(O)c1ccc(CNC(=O)c2cc(-c3cc(F)cc(F)c3)cc3nnn(Cc4ccc(C(F)(F)F)cc4)c23)cc1` [Example 176, ((5-(3,5-difluorophenyl)-1-(4-(trifluoromethyl)benzyl)-1H-benzo[d][1,2,3]triazole-7-carboxamido)methyl)benzoic acid], the IC50 was below 100 nM at human EP2 (PTGER2) and at most 100 nM on human EP4 (EP4R).

As to `COc1cccc(-c2cc(C(=O)NCc3ccc(C(=O)O)cc3)c3c(ccn3Cc3ccc(C(F)(F)F)cc3)c2)c1` [Example 76, 4-((5-(3-methoxyphenyl)-1-(4-(trifluoromethyl)benzyl)-1H-indole-7-carboxamido)methyl)benzoic acid], the IC50 at human EP2 (PTGER2) was below 100 nM; at human EP4 (EP4R), at most 100 nM.

Consider `O=C(O)c1ccc(CNC(=O)c2cc(-c3cc(F)cc(F)c3)cc3ccn(Cc4ccc(C(F)(F)F)cc4)c23)cc1` [Example 9, 4-((5-(3,5-difluorophenyl)-1-(4-(trifluoromethyl)benzyl)-1H-indole-7-carboxamido)methyl)benzoic acid], for which the IC50 against human EP2 (PTGER2) was below 100 nM; against human EP4 (EP4R) it was at most 100 nM.

Regarding `C[C@H](NC(=O)c1cc(-c2cc(F)cc(F)c2)cc2cnn(Cc3cccc(C(F)(F)F)c3)c12)c1ccc(C(=O)O)cc1` [Example 136, (S)-4-(1-(5-(3,5-difluorophenyl)-1-(3-(trifluoromethyl)benzyl)-1H-indazole-7-carboxamido)ethyl)benzoic acid], the IC50 against human EP2 (PTGER2) was below 100 nM; on human EP4 (EP4R), at most 100 nM.

Take `C[C@H](NC(=O)c1cc(-c2ccccc2)cc2cnn(Cc3ccc(C(F)(F)F)cc3)c12)c1ccc(C(=O)O)cc1` [Example 100, (S)-4-(1-(5-phenyl-1-(4-(trifluoromethyl)benzyl)-1H-indazole-7-carboxamido)ethyl)benzoic acid]: the IC50 was below 100 nM on human EP2 (PTGER2) and at most 100 nM against human EP4 (EP4R).
